Key:
[1] = system: primary hippocampal neurons; assay: Structural plasticity of cultured hippocampal neurons, Sholl analysis; format: cell-based, rat; conditions: for normalised AUC of the Sholl plot (dendritic arbor complexity): 24 h 5-MeO-DMT (20 μM) or cocaine (25 μM) alone, vs control; for maximum number of intersections (Nmax): FIG. 38C, all treatment groups
From the text: Primary Culture—Primary hippocampal neurons were derived from the hippocampi of embryonic day 18 (E18) rat embryos, as described previously (Seibenhener, M. L. & M. W. Wooten (2012) Isolation and Culture of Hippocampal Neurons from Prenatal Mice. Journal of Visualized Experiments: JoVE, 3634). Briefly, the brains were removed from the skull and stored in cooled Hank's Balanced Salt Solution (HBSS). The hippocampus was isolated under a dissection microscope and digested using 0.05% Trypsin (Gibco) in HBSS for 10 mins after which trypsinisation was stopped by the addition of 2% foetal calf serum (Gibco). Isolated cells were suspended in plating media and viable cells were counted with a haemocytometer using trypan blue (Gibco) staining. Cells were plated at a density of 1×10^6 cells/well on 12-well plates coated with 0.02% Poly-DL-ornithine hydrobromide (Sigma). After plating, cells were incubated at 37° C. in humidified air with 5% C02. Half medium changes were performed every 2-3 days with L-glutamic acid no longer included in the media after 3 DIV.
Immunocytochemistry—Primary hippocampal neurons grown on 18 mm diameter glass coverslips were fixed in 70% ethanol (EtOH) for 20 mins. After fixing, cells were permeabilised in 0.2% Triton X-100 (Thermo Fisher) in PBS and washed in PBS. Cells were blocked in 1% BSA (Sigma) in PBS for 45 mins. Following blocking, cells were incubated with primary antibodies in 5% BSA and 5% normal goat serum (Agilent) for 2 hours in a humidity chamber at room temperature or overnight at 4° C. Cells were rinsed in PBS and incubated with 1 ug/ml 4′,6-Diamidine-2′-phenylindole dihydrochloride (DAPI) (Thermo Fisher) for 10 mins. Coverslips were mounted on microscope slides using mounting medium containing mowiol 4-88 (Sigma), stored in the dark at 4° C. and were imaged within 7 days of mounting. Images were captured on a Zeiss AxioImager M1 fluorescent microscope using a x40 oil immersion lens. 10 images were taken per coverslip and images were analyzed by a customized R script (Appendix I) using EBImage by Bioconductor Ver 3.7. Briefly, DAPI staining was used as a nuclear reference with a threshold of a minimal radius and fluorescent intensity implemented to differentiate DAPI-labelled nuclei against cell debris or non-specific binding. A watershed command in the R script was used to ensure segmentation and identification of nuclei which may be tightly clustered as distinct objects. The nuclei were dilated using kernel expansion to designate the soma region surrounding the nucleus. A distance map was generated for each image which calculates the distance of each foreground pixel (white) to the nearest background pixel (black). Protein expression was measured as the average pixel fluorescence intensity for each cell in each channel. In all experiments cells were stained with an antibody for NeuN, a protein specifically expressed in neurons, to localise protein changes to the neuronal or non-neuronal cellular populations in the culture. Proteins assessed by ICC were 5-HT1AR (FIG. 7A), 5-HT2AR (FIG. 7B).
Primary hippocampal cultures were grown on 18 mm glass coverslips at a density of 1×10^6 cells as described. On 3 DIV all cells underwent a full medium change. […] On 4 DIV, all cells underwent a second full medium change. Cells in the combination group were treated with 2 μM 5-MeO-DMT for a further 24 hours with all other groups beginning a 24-hour treatment. After treatment was completed the cells were fixed and processed as described below.
After termination of drug treatment coverslips were processed and imaged as outlined for immunocytochemistry. In all instances NeuN antibody staining was used to visualize projections from the cell body. Images were analyzed using the Simple Neurite Tracer and Sholl analysis plug-ins for ImageJ Fiji. For the Sholl analysis circle radii of 2 μm increments were used. All images were taken and analyzed by an experimenter blinded to treatment conditions. […]

[2] = system: top 10 cocaine-dysregulated biological pathways in the hippocampus; assay: Biological pathway analysis (IPA) of transcriptomics, cocaine-dysregulated pathways; format: in vivo, Male Wister rats; conditions: single treatment
Description: Animals were then randomly allocated to one of five groups and received a single i.p. injection of one of vehicle, 5 mg/kg 5-Meo-DMT, 0.14 mg/kg LSD, 1 mg/kg psilocybin, or 1 mg/kg DOI. On day 15, animals were euthanised and the hippocampus blunt dissected, snap frozen in liquid nitrogen and stored at −80° C. until further processing.
Subsequent pathway analyses were done using Ingenuity Pathway Analysis (IPA). Analysis settings for IPA included the Ingenuity Knowledge Base (Genes Only), direct and indirect relationships, and endogenous chemicals of the previously filtered list of differentially expressed genes. IPA was filtered to only consider molecules where the species were human, rat, or mouse and the confidence can be experimentally observed. Canonical pathways were utilized in pathway analysis, where the spreadsheet organized the values of significance to −log(p-value) and the rate of regulation to the z-score. Negative z-score values indicate downregulation and positive values indicate upregulation.

5-HT1AR = conditions: canonical signaling activity measured; read-out: affinity (Ki) for the 5-HT1AR subtype; cited from earlier work
5-HT2AR = 5-HT2AR (Rattus norvegicus, UniProt P14842); conditions: read-out: Ki for the 5-HT2AR; non-canonical signaling, liberation of arachidonic acid; cited from earlier work
Sequence of 5-HT2AR (P14842 whole entry): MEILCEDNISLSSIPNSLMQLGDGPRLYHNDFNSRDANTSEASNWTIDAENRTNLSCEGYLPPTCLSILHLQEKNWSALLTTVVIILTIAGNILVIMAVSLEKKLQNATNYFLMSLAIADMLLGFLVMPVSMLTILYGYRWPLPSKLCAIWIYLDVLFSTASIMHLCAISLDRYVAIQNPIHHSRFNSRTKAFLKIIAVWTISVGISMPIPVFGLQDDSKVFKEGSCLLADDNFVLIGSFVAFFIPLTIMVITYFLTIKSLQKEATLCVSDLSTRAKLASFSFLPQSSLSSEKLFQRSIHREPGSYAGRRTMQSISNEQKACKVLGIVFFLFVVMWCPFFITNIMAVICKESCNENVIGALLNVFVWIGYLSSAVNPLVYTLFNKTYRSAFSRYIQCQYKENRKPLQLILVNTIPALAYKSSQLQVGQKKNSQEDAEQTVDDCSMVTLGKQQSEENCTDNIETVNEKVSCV

cerebral organoids = conditions: 5-MeO-DMT treated cerebral organoids; cited from earlier work
[3] = system: MAO-A and cytochrome P450 2D6 (CYP2D6); conditions: cited from earlier work

## COc1ccc2[nH]cc(CCN(C)C)c2c1 [5-MeO-DMT, 5-methoxy-N,N-dimethyltryptamine]
[1]; FIG. 38B
  normalised AUC of the Sholl plot (dendritic arbor complexity): increase dendritic arbor complexity
[1]; FIG. 38B, 24 h cocaine followed by 24 h 5-MeO-DMT
  normalised AUC of the Sholl plot: increased the normalised AUC relative to either compound alone
[1]
  maximum number of intersections (Nmax): unchanged between treatment groups
[1]; FIG. 38D, cocaine followed by 5-MeO-DMT
  average neurite length: significantly increased the average neurite length relative to both the control and cocaine alone treatment groups
[2]
  number of the top 10 dysregulated pathways corrected: 9 pathways
  top 10 cocaine-dysregulated biological pathways corrected: 90%
5-HT1AR
  Ki: < 10 nM
5-HT2AR
  Ki: 190 nM
Cerebral organoids
  mGluR5 receptor expression: decrease in mGluR5 receptor expression
[3]
  primary metabolic pathways: deamination by MAO-A and O-demethylation by cytochrome P450 2D6 (CYP2D6)

## COC(=O)[C@H]1[C@@H](OC(=O)c2ccccc2)C[C@@H]2CC[C@H]1N2C.Cl [cocaine, cocaine hydrochloride, reference compound]
[1]; FIG. 38B
  normalised AUC of the Sholl plot (dendritic arbor complexity): increase dendritic arbor complexity
[1]
  maximum number of intersections (Nmax): unchanged between treatment groups
